Laboratory results from patent publication US10350206B2, “Benzyl substituted indazoles as BUB1 inhibitors” (Bayer Pharma Aktiengesellschaft, priority 2014, dated 2019).
Where a name gives a salt, the structure may show the parent alone. Read-outs that look alike come from different tables or passages of the source.

Legend:
[1] = target: T1, catalytic domain of human Bub1 (amino acids 704-1085) (Homo sapiens, UniProt O43683); assay: Equilibrium probe competition assay (TR-FRET kinase binding assay); conditions: read-out: Assay 5 IC50
T1 construct: catalytic domain of human Bub1 (amino acids 704-1085); His6 (N); made in house; host or cells: Hi5 insect cells
Procedure: The half-life of prodrugs (Table 3) poses a challenge for the verification of their biological activity. The Bub1 enzymatic activity assay (as per Biological Assay 1.0 infra) requires a minimum reaction time of 60 minutes in order to be able to assess the inhibitory activity of the compounds. During this time typically 20% to 60% of the prodrugs have been already converted to their corresponding drugs at the pH of 7.5 at which the assay is performed. Ideally one would perform the biological assay at a pH at which the prodrug is stable (e.g. pH 4). […] Alternatively, an assay requiring shorter incubation times would better estimate the binding affinities of the prodrugs. […] Extrapolating the stability data from Tables 3 and 4, one would expect at this time point most of the compound present in the test solution to be the prodrug.
FIGS. 1 and 2 combine the results from Biological Assay 5 with those from Biological Assay 6. The binding affinities over time of drug and prodrug pairs are shown as pIC50 together with the prodrug stability, and the pIC50 to be expected if only the drug present in the sample was responsible for the activity in the assay. Extrapolating the pIC50 from these graphs to time 0 (at which 100% of prodrug is present in the sample), the actual affinity of the drug and prodrug can be inferred. Secondly, looking at the differences between expected and real pIC50 an estimate can be made about the contribution of the prodrug to the observed activity.
Biological Assay 5.0: Equilibrium Probe Competition Assay:
Bub1 binding affinity of compounds described in the present invention were quantified using a time-resolved fluorescence energy transfer (TR-FRET) kinase binding assay which measures displacement of the synthetic fluorescent probe 5-[({2-[2-({2-[1-(4-ethoxy-2,6-difluorobenzyl)-1H-indazol-3-yl]-4-(pyridin-4-ylamino)pyrimidin-5-yl}oxy)ethoxy]ethyl}carbamothioyl)amino]-2-(6-hydroxy-3-oxo-3H-xanthen-9-yl)benzoic acid (6-5-1) by the (recombinant) catalytic domain of human Bub1 (amino acids 704-1085). The enzyme was expressed in Hi5 insect cells with N-terminal 6×His/AviTag® sequences, purified by affinity- (Ni-NTA) and size exclusion chromatography and site-specific biotinylated ex-vivo using a commercially available kit (Avidity).
In a typical assay 11 different concentrations of each compound (0.1 nM, 0.33 nM, 1.1 nM, 3.8 nM, 13 nM, 44 nM, 0.15 μM, 0.51 μM, 1.7 μM, 5.9 μM and 20 μM) were tested in duplicate within the same microtiter plate. To this end, 100-fold concentrated compound solutions (in DMSO) were made by serial dilution (1:3.4) of freshly prepared 2 mM stocks in a clear low volume 384-well source microtiter plate (Greiner Bio-One, Frickenhausen, Germany), from which 50 nl of compounds were transferred into a black low volume test microtiter plate from the same supplier. Subsequently 2 μL of a solution containing biotinylated Bub1 (the final concentration of Bub1 was adjusted depending on the activity of the enzyme lot in order to be within the linear dynamic range of the assay: typically ˜[…] were used) and 1 nM Streptavidin Terbium Cryptate (Cisbio, No. 610SATLB) in aqueous assay buffer [50 mM Tris/HCl pH 7.5, 200 mM potassium chloride (KCl), 1.0 mM dithiothreitol (DTT), 0.1 mM sodium ortho-vanadate, 1% (v/v) glycerol, 0.01% (w/v) bovine serum albumine (BSA), 0.005% (v/v) Triton X-100 (Sigma), were added to the compounds in the test plate and the mixture was incubated for 15 min at 22° C. to allow pre-equilibration of the putative enzyme-inhibitor complexes before the start of the probe competition reaction, which was initiated by the addition of 3 μL 1.67-fold concentrated solution (in assay buffer) of 6-5-1 (final concentration: 1.5 nM). The resulting mixture (5 μL final volume) was incubated at 22° C. during 0, 15, 30, 60, 120, 240 and 1440 min. […]

[2] = Stability in buffer at various pH values (HPLC detection); type: physicochemical; conditions: 37° C., remaining prodrug; for Stability pH 4: % Test Compound after 4 h [F(t = 4 h) × 100/F(t = 0 h)]: pH 4 buffer; for Stability pH 7.4: % Test Compound after 4 h [F(t = 4 h) × 100/F(t = 0 h)]: pH 7.4 buffer
Procedure: Stability in Buffer at Various pH Values (HPLC Detection)
0.3 mg of the test compound was solved in 0.1 ml dimethylsulfoxide and 0.4 ml acetonitrile. For complete dissolution the HPLC vial with the sample solution was sonified for about 20 seconds. Then 1.0 ml of the respective buffer solution was added and the sample was again treated in the ultrasonic bath.
• pH 4.0: Fluka buffer, Order No. 33643 (11.76 g citric acid, 2.57 g sodium chloride and 2.72 g sodium hydroxide) • pH 7.4: 90 g of sodium chloride, 13.61 g of potassium dihydrogen phosphate and 83.35 g of 1 M sodium hydroxide solution were made up to 1 L with Millipore water and then diluted 1:10. • 10 μl portions of the sample solution were analysed by HPLC at different times (0 h, 1 h, 2h, 4h and 24h) at 37° C. The peak areas in percentage were used for quantification. HPLC Method: • Agilent 1100 with DAD (G1315B), binary pump (G1312A), autosampler (G1329A), column oven (G1316A), thermostat (G1330B); column: Kromasil 100 C18, 250 mm×4 mm, 5 μm; column temperature: 37° C.; eluent A: water+5 ml of perchloric acid/litre, eluent B: acetonitrile. Gradient: • 0 min 98% A, 2% B→0-3.0 min 85% A, 15% B→3.0-8.0 min 50% A, 50% B→8.0-16.0 min 50% A, 50% B→16.0-20.0 min 10% A, 90% B→20.0-21.0 10% A, 90% B→21.0-24.0 min 98% A, 2% B→24.0-25.0 min 98% A, 2% B; flow rate: 1.5 ml/min; UV detection: 210 nm.
The ratios of the peak area (F) at different times in relation to the peak area at the starting point are shown in Table 3 for representative examples: […]

SMILES	IC50 ([1]; Time 15 min) [nM]	IC50 ([1]; Time 30 min) [nM]	IC50 ([1]; Time 60 min) [nM]	IC50 ([1]; Time 90 min) [nM]	IC50 ([1]; Time 120 min) [nM]	IC50 ([1]; Time 240 min) [nM]	IC50 ([1]; Time 1440 min) [nM]	Stability pH 4: % Test Compound after 4 h [F(t = 4 h) × 100/F(t = 0 h)] [2] [%]	Stability pH 7.4: % Test Compound after 4 h [F(t = 4 h) × 100/F(t = 0 h)] [2] [%]
COc1cnc(-c2nn(Cc3c(F)cc(OCCOC(=O)[C@H](C)NC(=O)[C@@H](N)CCCCN)cc3F)c3ccccc23)nc1Nc1ccnc(C)c1 [Example 4-1-1, 2-{3,5-difluoro-4-[(3-{5-methoxy-4-[(2-methylpyridin-4-yl)amino]pyrimidin-2-yl}-1 H-indazol-1-yl)methyl]phenoxy}ethyl L-lysyl-L-alaninate, salt with trifluoroacetic acid]	17	10	12	10	7.2	5.8	2.7	100	4
COc1cnccc1Nc1nc(-c2nn(Cc3c(F)cc(OCCOC(=O)[C@H](C)NC(=O)[C@@H](N)CCCCN)cc3F)c3ccccc23)ncc1OC [Example 4-1-2, 2-{3,5-difluoro-4-[(3-{5-methoxy-4-[(3-methoxypyridin-4-yl)amino]pyrimidin-2-yl}-1H-indazol-1-yl)methyl]phenoxy}ethyl L-lysyl-L-alaninate, salt with trifluoroacetic acid]	2.7	2.3	2.2	1.3	1	0.69	0.36	100	5
COc1cnc(-c2nn(Cc3c(F)cc(OCCOC(=O)[C@H](C)NC(=O)[C@H](N)CCCCN)cc3F)c3ccccc23)nc1Nc1ccnc(F)c1 [Example 4-1-3, 2-{3,5-difluoro-4-[(3-{4-[(2-fluoropyridin-4-yl)amino]-5-methoxypyrimidin-2-yl}-1H-indazol-1-yl)methyl]phenoxy}ethyl D-lysyl-L-alaninate, salt with trifluoroacetic acid]	–	–	–	–	–	–	–	100	0
COc1cnc(-c2nn(Cc3c(F)cc(OCCOC(=O)[C@H](C)NC(=O)[C@@H](N)CCCCN)cc3F)c3ccccc23)nc1Nc1ccnc(F)c1 [Example 4-1-4, 2-{3,5-difluoro-4-[(3-{4-[(2-fluoropyridin-4-yl)amino]-5-methoxypyrimidin-2-yl}-1H-indazol-1-yl)methyl]phenoxy}ethyl L-lysyl-L-alaninate, salt with trifluoroacetic acid]	–	–	–	–	–	–	–	100	9
COc1cnc(-c2nn(Cc3c(F)cc(OCCOC(=O)[C@H](C)NC(=O)[C@@H](N)CCCCN)cc3F)c3ccccc23)nc1Nc1ccncc1 [Example 6-2-1, 2-[3,5-difluoro-4-({3-[5-methoxy-4-(pyridin-4-ylamino)pyrimidin-2-yl]-1 H-indazol-1-yl}methyl)phenoxy]ethyl L-lysyl-L-alaninate, salt with trifluoroacetic acid, reference compound]	–	–	–	–	–	–	–	100	3
